Series [1] relates to Sab expression. In words: In-cell western for SAB expression in SH-SY5Y cells treated with 6-OHDA. The series is classed as cell-based, human. The following applies: increasing sub-chronic doses of 6-OHDA (0-100.00 nM, 24 hours). The protocol: Cells or tissue samples are placed in a fluorescent compatible plate (for example, a 96-well plate) and the sample can be fixed to the plate. The sample is then permeabilized using detergent to disrupt the plasma membrane. Primary antibodies to detect SAB (Abnova, Inc.) are then incubated with the samples. Following a brief wash, the cells are incubated with a fluorescently labeled secondary antibody used to recognize the primary antibody. The samples are washed again. The plate is then scanned on a Li-Cor Bioscience Odyssey CLx near-infrared scanner to measure the fluorescent signal from the sample. A high fluorescent signaling indicates a higher level of SAB protein, while a low fluorescence signal indicates a lower level of SAB protein.
An in-cell western allows detection of protein levels in cells cultured in a 96-well black walled plate. For this technique, the cells are fixed with paraformaldehyde following seeding and growth to 80% confluency. […] Using the LiCor Odyssey CLx near infrared imager, the relative amounts of protein in each well are quantified. […]
An example of in-cell western technology for the detection of SAB is shown in (FIG. 3). […] In a model of cytotoxicity, SH-SY5Y cells treated with increasing sub-chronic doses of the neurotoxin, 6-hydroxydopamine (6-OHDA) were seeded in a 96-well plate and monitored for SAB expression.

Series [2] concerns SAB. Put plainly: SAB levels in rats injected with 6-OHDA (ventral midbrain western blot, blood cells). The series is classed as in vivo, rat. The source says:
Parkinson's disease-like state was induced in animals by localizing treatment to the ventral midbrains of rats using 6-hydroxydopamine. Blood was obtained from 6-hydroxydopamine treated rats and the control rats. Levels of SAB protein or RNA encoding SAB proteins in platelets and other blood cells were higher in 6-hydroxydopamine treated rats compared to control rats.
Further, disruption of SAB-mediated signaling using a small peptide to block kinase binding to SAB prevented 6-OHDA-induced motor deficiencies in rats (FIG. 8).
In general terms: A western blot detects proteins with antibodies after separation by electrophoresis.

Series [3] concerns SAB. In words: SAB levels in response to chronic cytotoxic processes. The settings on record: treatment with CCCP.
The test system of series [4] is HeLa cells. In words: LY294002 toxicity / viability of HeLa cells. The format is cell-based, human. The protocol:
LY294002 was solubilized in dimethylformamide (DMF). HeLa cells were exposed to the indicated doses of LY294002 over 24 h for acute studies. […] […] The media was exchanged every 48 h to sustain the drug concentrations.
(§1) Studies using LY294002 have employed high doses (often >10 μM). […] For acute treatments, cells were dosed with 0.1% DMF or increasing concentrations of LY294002 (2 μM, 10 μM, and 50 μM) for 24 h.

The subject of a further series is JNK. Put plainly: JNK activation and mitochondrial JNK in LY294002-treated HeLa cells by western blot. The format is cell-based, human. The protocol: (§2) Following 72 h of transfection, cells were lysed and proteins were harvested. Protein concentration was determined using the by Pierce BCA Assay kit. Proteins were resolved by SDS-PAGE, and transferred onto PVDF membranes. Membranes were incubated with Li-Cor Biosciences Odyssey Blocking for at least 1 h at room temperature. The membranes were then incubated with primary antibodies specific for Sab, JNK, p44/42 MAPK (Erk1/2), p38, GAPDH, Actin, Calnexin, TOM20, or α-tubulin at 1:1000 dilutions in blocking buffer. Membranes were washed three times for 5 min in PBST. Membranes were incubated with secondary antibodies in blocking buffer at 1:20,000 for fluorescently conjugated secondary antibodies. Membranes were again washed three times for 5 min in PBST. Western blots were developed using the Odyssey CLx imager (Li-Cor Biosciences).
Mitochondria were isolated from HeLa cells. […]
(§3) Western blot images were acquired using the LI-COR Odyssey CLx imager. Fluorescence signals were acquired for the bands of interest. […]
To determine if LY294002 impacted the concentration of JNK signaling on mitochondria, the expression of Sab was measured in HeLa cells in both acute and sub-chronic administration of LY294002. […] As time increased, there was a noticeable increase (˜8-fold) in Sab expression in the LY294002 compared to DMF-treated and untreated cells (FIG. 17B and quantified in FIG. 18B). […]

In series [5] the test system is Sab expression. Put plainly: Sab expression in LY294002-treated HeLa cells by quantitative western blot. The series is classed as cell-based, human. The protocol: LY294002 was solubilized in dimethylformamide (DMF). HeLa cells were exposed to the indicated doses of LY294002 over 24 h for acute studies. The 24-h IC10 for LY294002 in HeLa cells to be ˜2 μM. For sub-chronic exposure, cells were dosed with 2 μM LY294002 for seven days. The media was exchanged every 48 h to sustain the drug concentrations.
as §2, with “Western blots were developed using the Odyssey CLx imager (Li-Cor Biosciences).” left out
as §3
HeLa cell mitochondria were primed using a sub-chronic (2 μM dose) of LY294002 for seven days. The concentration of SAB was monitored using quantitative western blot analysis on protein lysates taken on days 0, 3, and 7 of LY294002 treatment.
To determine if LY294002 impacted the concentration of JNK signaling on mitochondria, the expression of Sab was measured in HeLa cells in both acute and sub-chronic administration of LY294002. […] As time increased, there was a noticeable increase (˜8-fold) in Sab expression in the LY294002 compared to DMF-treated and untreated cells (FIG. 17B and quantified in FIG. 18B). […] To determine if mitochondrial translocation of JNK occurred during the sub-chronic treatment, mitochondrial isolates were analyzed for the presence of JNK on days 3 and 4 (the days of maximal JNK activation). […]

The conditions of series [6]: patients; cited from earlier work.
Series [7] relates to HeLa cells. In words: Calculation of paclitaxel and cisplatin IC50s by TO-PRO-3 staining. The series is classed as cell-based, human. The protocol:
LY294002 was solubilized in dimethylformamide (DMF). HeLa cells were exposed to the indicated doses of LY294002 over 24 h for acute studies. […] For sub-chronic exposure, cells were dosed with 2 μM LY294002 for seven days. The media was exchanged every 48 h to sustain the drug concentrations.
Briefly, 10,000 cells were plated in a black-walled optically clear bottom 96-well plate. […] The cells were fixed in 4% paraformaldehyde for 25 min at room temperature, and stained with TO-PRO-3 (1 μM) in PBST (150 mM NaCl, 8 mM Na2HPO4, 3 mM KCl, 2 mM KH2PO4, pH 7.4, 0.05% Tween 20). The cells were then washed five times in PBST while gently rocking for 5 min at room temperature. Samples were protected from light during incubations. Assays were visualized on the Li-Cor Odyssey CLx imager, and IC50s were calculated using Graphpad® Prism.
Transient transfections with pLOC plasmids for expression and pLKO.1 plasmids for silencing (Open Biosystems) were used to modulate Sab levels. HeLa cells were plated at a density of 2×10^5 cells per 35-mm dish the day before transfections. Plasmids were mixed with FugeneHD (Promega) at a ratio of 3:1 according to the manufacturer's protocol. Protein levels were monitored by western blot analysis.
as §1

Series [8] deals with SK-OV-3 ovarian cancer cells. Put plainly: Paclitaxel sensitivity of SK-OV-3 cells over-expressing SH3BP5. The format is cell-based, human. The following applies: paclitaxel following 48 hours of transfection.

“Also recorded” adds a separate entry of the source. Where two headings read alike, the source gives them in different places.

Here are results for 6 compounds from patent US10078090B2, “SAB as a biomarker for degenerative diseases and therapeutic sensitivity in cancers” (The Florida International University Board of Trustees, priority 2014, dated 2018).

In the case of `NCCc1cc(O)c(O)cc1O` [6-OHDA, 6-hydroxydopamine], the SAB expression entry in the series on Sab expression [1] was “elevates SAB expression; also recorded: increased in a dose-dependent manner”. Moreover, the “Levels of SAB protein or RNA encoding SAB proteins in platelets and other blood cells” value in the series with SAB [2] (6-hydroxydopamine treated rats compared to control rats) is “higher”. The “SAB levels in ventral midbrain” value in the series with SAB [2] (rats stereotactically injected with 6-OHDA versus saline, six days post-injection) is reported as “SAB levels increase; also recorded: elevated”.
Turning to `N#CC(C#N)=NNc1cccc(Cl)c1` [CCCP, carbonylcyanide m-chlorophenylhydrazone], the SAB levels result in the series on SAB [3] is “increased”.
Regarding `O=c1cc(N2CCOCC2)oc2c(-c3ccccc3)cccc12` [LY294002, 2-Morpholin-4-yl-8-phenylchromen-4-one], the HeLa cell viability result in the series on HeLa cells [4] (2 μM LY294002, seven days) is on record as “little impact”; in the series on HeLa cells [4] (10 μM and 50 μM LY294002, seven days) it was “lethal”. Further, in the series on HeLa cells [4] (HeLa cells, 24 h), the “24-h IC10 for LY294002” value is approximately 2 µM. Besides, the “Increase in phospho-JNK levels” value in the series with JNK (2 μM LY294002, between days 2 and 4) is on record as “over 10 fold”. Also, in the series on JNK (2 μM LY294002, between days 3 and 4), the “JNK levels on mitochondria” value was “increased”. Further, in the series with Sab expression [5] (2 μM LY294002, 7 days), the “Increase in Sab expression compared to DMF-treated and untreated cells” value is listed as approximately 8 fold. The “SAB expression (in words)” value in the series on Sab expression [5] (2 μM LY294002 for seven days) is recorded as “pronounced increase; also recorded: significant increase; also recorded: increased SH3BP5 expression”. Also, the “Sab expression versus 0.1% DMF and untreated controls” value in the series with Sab expression [5] (2 μM, 10 μM and 50 μM LY294002 over 24 h) is reported as “neither condition increased Sab expression”.
With `Sc1ncnc2nc[nH]c12` [6-mercaptopurine], the “Doses that can induce hepatotoxicity” value in series [6] is listed as “greater than 2 mg/kg”.
For orientation: IC50 means the concentration that gives 50% inhibition. Regarding `N.N.[Cl][Pt][Cl]` [Cisplatin], the IC50 was 0.0073 µM in the series on HeLa cells [7] (read-out: Cisplatin IC50, Sab shRNA#2 + Sab:shRNA^r (rescue)); 0.0121 µM in the series with HeLa cells [7] (read-out: Cisplatin IC50, gene silencing, Sab shRNA#1); 0.0188 µM in the series with HeLa cells [7] (read-out: Cisplatin IC50, gene silencing, Sab shRNA#2); 0.0039 µM in the series on HeLa cells [7] (read-out: Cisplatin IC50, gene silencing, control shRNA); 0.00054 µM with HeLa cells [7] (read-out: Cisplatin IC50, sub-chronic (7 days) 2 μM LY294002); 0.0032 µM in the series with HeLa cells [7] (read-out: Cisplatin IC50, untreated).
For the compound `CC(=O)O[C@H]1C(=O)[C@@]2(C)[C@H]([C@H](OC(=O)c3ccccc3)[C@]3(O)C[C@H](OC(=O)[C@H](O)[C@@H](NC(=O)c4ccccc4)c4ccccc4)C(C)=C1C3(C)C)[C@]1(OC(C)=O)CO[C@@H]1C[C@@H]2O` [Paclitaxel], the IC50 in the series on HeLa cells [7] (Homo sapiens, HeLa, 24 h, acute (24 h) 2 μM LY294002, read-out: Paclitaxel IC50) was 14.1 µM; in the series on HeLa cells [7] (Homo sapiens, HeLa, 24 h, acute (24 h) 10 μM LY294002, read-out: Paclitaxel IC50) it was 6.3 µM; with HeLa cells [7] (Homo sapiens, HeLa, 24 h, acute (24 h) 50 μM LY294002, read-out: Paclitaxel IC50), 1.9 µM; in the series with HeLa cells [7] (Homo sapiens, HeLa, 24 h, acute (24 h) 50 μM LY294002, read-out: Paclitaxel IC50 (as worded in text)), 1.9 µM; in the series with HeLa cells [7] (Homo sapiens, HeLa, 24 h, acute (24 h) 0.1% DMF, read-out: Paclitaxel IC50) it was 13.6 µM; with HeLa cells [7] (Homo sapiens, HeLa, 168 h, sub-chronic (7 days) 2 μM LY294002, read-out: Paclitaxel IC50) it was 5.1 µM. In addition, the IC50 is 13.9 µM in the series on HeLa cells [7] (Homo sapiens, HeLa, 168 h, sub-chronic (7 days) 0.1% DMF, read-out: Paclitaxel IC50); 28 µM with HeLa cells [7] (Homo sapiens, HeLa, Sab shRNA#2 + Sab:shRNA^r (rescue), read-out: Paclitaxel IC50); 13.4 µM in the series with HeLa cells [7] (Homo sapiens, HeLa, ectopic expression of RFP, read-out: Paclitaxel IC50); 4.7 µM in the series with HeLa cells [7] (Homo sapiens, HeLa, ectopic expression of Sab, read-out: Paclitaxel IC50); 13.8 µM in the series on HeLa cells [7] (Homo sapiens, HeLa, ectopic expression of Sab: KIM1/2-L/A, read-out: Paclitaxel IC50); 61.8 µM in the series with HeLa cells [7] (Homo sapiens, HeLa, gene silencing, Sab shRNA#1, read-out: Paclitaxel IC50). Moreover, the IC50 is 73.4 µM with HeLa cells [7] (Homo sapiens, HeLa, gene silencing, Sab shRNA#2, read-out: Paclitaxel IC50); 15.3 µM with HeLa cells [7] (Homo sapiens, HeLa, gene silencing, control shRNA, read-out: Paclitaxel IC50); 14.7 µM in the series with HeLa cells [7] (Homo sapiens, HeLa, untreated, read-out: Paclitaxel IC50). Besides, in the series on HeLa cells [7] (pLOC:Sab versus untreated, mock-transfected or RFP cells), the “Decrease in the IC50 of paclitaxel on increasing Sab expression” value is 5 fold. Also, the “Sensitivity to paclitaxel of SH3BP5 over-expressing cells compared to mock and D-AKAP1 over-expressing cells” value in series [8] worked out at 2.5 times.
